In patent US9593305B2, “Differentiation of pluripotent stem cells” (Janssen Biotech, Inc., priority 2008, dated 2017):

Tested on: H1 human embryonic stem cells
Assay: Bioassay validation: activin A titration with or without Wnt3a, cell number and SOX17 intensity (Example 2)
Assay type: cell-based
Conditions: with 20 ng/ml Wnt3a days 1-2, four-day assay
Excerpt: Activin A is an important mediator of differentiation in a broad range of cell types, including differentiation of embryonic stem cells to definitive endoderm. […] A bioassay that measures this differentiation in human embryonic stem cells was adapted in miniaturized format to 96-well plates for screening purposes. Validation was completed using treatment with commercial sources of activin A and Wnt3a recombinant proteins and measuring protein expression of the transcription factor SOX17, considered to be a representative marker of definitive endoderm.
Briefly, clusters of H1 human embryonic stem cells were grown on reduced growth factor […]™ (Invitrogen; Cat #356231)-coated tissue culture plastic. Cells were passaged using collagenase (Invitrogen; Cat #17104-019) treatment and gentle scraping, washed to remove residual enzyme, and plated in a ratio of 1:1 (surface area) on reduced growth factor […]™-coated 96-well black plates (Packard ViewPlates; Perkin Elmer; Cat #6005182). […]
Imaging was performed using an IN Cell Analyzer 1000 (GE Healthcare) utilizing the 51008bs dichroic for cells stained with Hoechst 33342 and Alexa Fluor 488. […] Segmentation for the nuclei was determined based on gray-scale levels (baseline range 100-300) and nuclear size. […]

Activin A: recombinant human activin A (PeproTech), TGF-beta family member
EC50 for induction of SOX17 expression: 0.03 to 0.05 µg/mL
Optimal activin A effects for induction of SOX17 expression (concentration range): 100 to 200 ng/mL
